Assay results as given in publication PMC4728661, “Cancer Prevention and Health Benefices of Traditionally Consumed Borago officinalis Plants” (Nutrients, 2016).
Marks after values point to notes of the source that are not given here.

Columns and labels:
[1] = test system: D. melanogaster; assay: Genotoxicity: Somatic Mutation and Recombination Test (SMART), wing spot test, simple treatments; format: in vivo, Drosophila melanogaster; conditions: for Genotoxicity in the Drosophila wing spot test (in words): simple treatments, all concentrations; for Diagnosis, Large Single Spots >2 Cells m = 5 / Diagnosis, Small Single Spots 1–2 Cells m = 2 / Diagnosis, Total Spots m = 2 / Diagnosis, Twin Spots m = 5 / Mutation rate, Large Single Spots >2 Cells m = 5 / Mutation rate, Small Single Spots 1–2 Cells m = 2 / Mutation rate, Total Spots m = 2 / Mutation rate, Twin Spots m = 5: simple; on Diagnosis, Large Single Spots >2 Cells m = 5: key: + (positive); − (negative); on Diagnosis, Small Single Spots 1–2 Cells m = 2: key: + (positive); − (negative); on Diagnosis, Total Spots m = 2: key: + (positive); − (negative); on Diagnosis, Twin Spots m = 5: key: + (positive); − (negative)
Procedure: The D. melanogaster system was selected for the determination of the safety of B. officinalis consumption as a well-recognized method to analyze vegetable complex mixtures using SMART [31, 32]. This test was used in order to evaluate the genotoxic and antigenotoxic activity of B. officinalis leaves and petioles as well as their selected bioactive compounds [33]. This activity was measured by direct visualization of the occurrence of recessive mutations in the wing hairs of two different D. melanogaster strains. Flies from experiments carried these visible wing genetic markers: the flare (flr) strain flr^3/ln (3LR) TM3, Bd^s and the multiple wing-hair (mwh) strain mwh/mwh. The marker flare (flr^3, 3_38.3) produces individual malformed hairs and the marker multiple wing hairs (mwh, 3_0.3) produces multiple hairs per cell. Larvae used in treatments come from two types of crosses: the standard cross with flr^3/TM3, Bd^S females mated to mwh/mwh males and the reciprocal cross.
Optimal fertile flies were anesthetized under CO2 narcotisation for cross selection and then placed in new vials for fertilization. After that, hybrid eggs from crossing were collected over an 8 h period and emerged larvae (72 ± 4 h later) were cleaned up for a few seconds in sterile distilled water to remove feeding medium rests. For genotoxicity analysis (simple treatments), groups of 100 larvae were transferred into vials containing 0.85 g of Drosophila Instant Medium (Formula 4–24, Carolina Biological Supply, Burlington, NC, USA) wetted with 4 mL of a mixture of distilled water and increasing concentrations of samples: B. officinalis BF and WF (1.25, 2.5, and 5 mg·mL^−1), RO (0.35, 0.7, 1.39 and 2.78 mM), SY (0.16, 0.32, 0.63 and 1.26 mM), SI (0.15, 0.29, 0.58 and 1.16 mM) and the mixture of these three bioactive compounds at each concentration assayed individually. Bioactive compound concentrations were chosen on the basis of their known content in B. officinalis species. […] Larvae were fed on these media until pupation (about 48 h). After emergence, resulting adult flies were sacrificed under CO2 narcotisation and stored in a 70% ethanol solution in sterile water. Emerged adults were counted for toxicity evaluation and transheterozygous wings (mwh flr^+/mwh^+ flr^3) were mounted on microscope slides and wing hair mutations (spots) scored, using a photonic microscope (Nikon) at 400× magnification for genotoxicity and antigenotoxicity evaluation.
For the evaluation of genotoxic effects, the frequencies of spots per fly of each treated series were compared to the concurrent negative control for each class of mutational clone as well as between simple and combined treatments for the same concentration comparisons. […] A multiple-decision procedure was used to categorize results as positive, inconclusive or negative. Inconclusive and positive results were evaluated by the non-parametric U test of Mann, Whitney and Wilcoxon. The inhibition percentage (IP) of genotoxicity was calculated from the total frequencies of spots per wing, following this formula [42]: IP = (genotoxin alone − sample + genotoxin) × 100/(genotoxin alone)(2)

[2] = test system: D. melanogaster; assay: Toxicity: survival of Drosophila larvae to emerged adults, simple and combined (H2O2) treatments; format: in vivo, Drosophila melanogaster
Procedure: Optimal fertile flies were anesthetized under CO2 narcotisation for cross selection and then placed in new vials for fertilization. After that, hybrid eggs from crossing were collected over an 8 h period and emerged larvae (72 ± 4 h later) were cleaned up for a few seconds in sterile distilled water to remove feeding medium rests. […] Bioactive compound concentrations were chosen on the basis of their known content in B. officinalis species. […] Larvae were fed on these media until pupation (about 48 h). After emergence, resulting adult flies were sacrificed under CO2 narcotisation and stored in a 70% ethanol solution in sterile water. […] The determination of Toxicity (T) of treatments in D. melanogaster was performed following this formula [39]: T = (N° of emerging individuals in treatment/N° of emerging individuals in the negative control) × 100(1) Differences in D. melanogaster survival between treatments at each concentration with respect to negative control were analyzed with a Chi-square test. This procedure was also performed for the analysis of each simple treatment with their correspondent combined treatment.

[3] = test system: HL-60 cells; assay: Cytotoxicity: HL-60 growth/viability, Trypan Blue dye exclusion; format: cell-based, human; conditions: 0.03–1 mM, 72 h
Procedure: The human acute promyelocytic leukemia cell line HL-60 was routinely grown in suspension in RPMI medium (Invitrogen, Madrid, Spain) containing glutamine ([…], Sigma-Aldrich, St. Louis, MO, USA), antibiotics (100IU penicillin mL^−1 and 100 μg streptomycin mL^−1, Sigma-Aldrich) and supplemented with 10% heat-inactivated foetal bovine serum (Linus, Cultek, Madrid, Spain) and placed in an incubator (Shel Lab, Cornelious, OR, USA) with a 5% CO2 humidified atmosphere at 37 °C [36]. HL-60 cells were subcultured every 2–3 days to maintain logarithmic growth and they were allowed to grow for 48 h before use. Cultures were plated at a density of 12.5 × 10^4 cells mL^−1 in 40 mL culture flasks (25 cm^2). Cytotoxic activity was measured as growing inhibition or decreased viability on HL-60 cells following a previous protocol modified by us. […] Cells were counted after 72 h treatment. Tested concentrations were calculated according to those used for in vivo assays to equal the range of tested doses. Untreated cultures were used as negative control. Cell viability was determined by the Trypan Blue dye exclusion test. Cells were stained with an equal volume of Trypan Blue commercial solution (Sigma-Aldrich) and counted using a hemocytometer at room temperature under a light inverted microscope (AE30/31, Motic, Barcelona, Spain). Cytotoxic effect evaluation was determined after each culture incubation period, establishing a growth curve and determining IC50 values by regression analysis of the curves. Viability estimated regressions of leukemia cells are presented as a survival percentage with respect to controls at 72 h growth and plotted as mean viability ± standard error of at least three independent replicas for each treatment and concentration.

COc1cc(/C=C/C(=O)O)cc(OC)c1O [SI, sinapic acid]
Genotoxicity in the Drosophila wing spot test (in words) [1]: not mutagenic | Diagnosis, Large Single Spots >2 Cells m = 5 ([1]; 0.15 mM SI): − | Diagnosis, Small Single Spots 1–2 Cells m = 2 ([1]; 0.15 mM SI): − | Diagnosis, Total Spots m = 2 ([1]; 0.15 mM SI): − | Diagnosis, Twin Spots m = 5 ([1]; 0.15 mM SI): − | Mutation rate, Large Single Spots >2 Cells m = 5 ([1]; 0.15 mM SI): 0.04 (1) spots/wing | Mutation rate, Small Single Spots 1–2 Cells m = 2 ([1]; 0.15 mM SI): 0.38 (9) spots/wing | Mutation rate, Total Spots m = 2 ([1]; 0.15 mM SI): 0.46 (11) spots/wing | Mutation rate, Twin Spots m = 5 ([1]; 0.15 mM SI): 0.04 (1) spots/wing | Diagnosis, Large Single Spots >2 Cells m = 5 ([1]; 0.29 mM SI): − | Diagnosis, Small Single Spots 1–2 Cells m = 2 ([1]; 0.29 mM SI): − | Diagnosis, Total Spots m = 2 ([1]; 0.29 mM SI): − | Mutation rate, Large Single Spots >2 Cells m = 5 ([1]; 0.29 mM SI): 0.10 (3) spots/wing | Mutation rate, Small Single Spots 1–2 Cells m = 2 ([1]; 0.29 mM SI): 0.39 (12) spots/wing | Mutation rate, Total Spots m = 2 ([1]; 0.29 mM SI): 0.48 (15) spots/wing | Mutation rate, Twin Spots m = 5 ([1]; 0.29 mM SI): 0 spots/wing | Diagnosis, Large Single Spots >2 Cells m = 5 ([1]; 0.58 mM SI): − | Diagnosis, Small Single Spots 1–2 Cells m = 2 ([1]; 0.58 mM SI): − | Diagnosis, Total Spots m = 2 ([1]; 0.58 mM SI): − | Mutation rate, Large Single Spots >2 Cells m = 5 ([1]; 0.58 mM SI): 0.07 (2) spots/wing | Mutation rate, Small Single Spots 1–2 Cells m = 2 ([1]; 0.58 mM SI): 0.33 (10) spots/wing | Mutation rate, Total Spots m = 2 ([1]; 0.58 mM SI): 0.40 (12) spots/wing | Mutation rate, Twin Spots m = 5 ([1]; 0.58 mM SI): 0 spots/wing | Diagnosis, Large Single Spots >2 Cells m = 5 ([1]; 1.16 mM SI): − | Diagnosis, Small Single Spots 1–2 Cells m = 2 ([1]; 1.16 mM SI): − | Diagnosis, Total Spots m = 2 ([1]; 1.16 mM SI): − | Diagnosis, Twin Spots m = 5 ([1]; 1.16 mM SI): − | Mutation rate, Large Single Spots >2 Cells m = 5 ([1]; 1.16 mM SI): 0.03 (1) spots/wing | Mutation rate, Small Single Spots 1–2 Cells m = 2 ([1]; 1.16 mM SI): 0.23 (9) spots/wing | Mutation rate, Total Spots m = 2 ([1]; 1.16 mM SI): 0.28 (11) spots/wing | Mutation rate, Twin Spots m = 5 ([1]; 1.16 mM SI): 0.03 (1) spots/wing | Survival ([2]; combined with 0.12 M H2O2, 0.15 mM SI): 64 *^,‡ % | Survival ([2]; combined with 0.12 M H2O2, 0.29 mM SI): 58.89 * % | Survival ([2]; combined with 0.12 M H2O2, 0.58 mM SI): 39.78 *^,‡ % | Survival ([2]; combined with 0.12 M H2O2, 1.16 mM SI): 43.56 *^,‡ % | Survival ([2]; simple treatment, 0.15 mM SI): 78.22 * % | Survival ([2]; simple treatment, 0.29 mM SI): 60.22 * % | Survival ([2]; simple treatment, 0.58 mM SI): 69.33 * % | Survival ([2]; simple treatment, 1.16 mM SI): 55.11 * % | Effect on HL-60 growth [3]: did not affect HL-60 growth

COc1cc(C(=O)O)cc(OC)c1O [SY, syringic acid]
Genotoxicity in the Drosophila wing spot test (in words) [1]: not mutagenic | Diagnosis, Large Single Spots >2 Cells m = 5 ([1]; 0.16 mM SY): − | Diagnosis, Small Single Spots 1–2 Cells m = 2 ([1]; 0.16 mM SY): − | Diagnosis, Total Spots m = 2 ([1]; 0.16 mM SY): − | Diagnosis, Twin Spots m = 5 ([1]; 0.16 mM SY): − | Mutation rate, Large Single Spots >2 Cells m = 5 ([1]; 0.16 mM SY): 0.05 (2) spots/wing | Mutation rate, Small Single Spots 1–2 Cells m = 2 ([1]; 0.16 mM SY): 0.30 (12) spots/wing | Mutation rate, Total Spots m = 2 ([1]; 0.16 mM SY): 0.38 (15) spots/wing | Mutation rate, Twin Spots m = 5 ([1]; 0.16 mM SY): 0.03 (1) spots/wing | Diagnosis, Large Single Spots >2 Cells m = 5 ([1]; 0.32 mM SY): − | Diagnosis, Small Single Spots 1–2 Cells m = 2 ([1]; 0.32 mM SY): − | Diagnosis, Total Spots m = 2 ([1]; 0.32 mM SY): − | Mutation rate, Large Single Spots >2 Cells m = 5 ([1]; 0.32 mM SY): 0.07 (2) spots/wing | Mutation rate, Small Single Spots 1–2 Cells m = 2 ([1]; 0.32 mM SY): 0.20 (6) spots/wing | Mutation rate, Total Spots m = 2 ([1]; 0.32 mM SY): 0.27 (8) spots/wing | Mutation rate, Twin Spots m = 5 ([1]; 0.32 mM SY): 0 spots/wing | Diagnosis, Large Single Spots >2 Cells m = 5 ([1]; 0.63 mM SY): − | Diagnosis, Small Single Spots 1–2 Cells m = 2 ([1]; 0.63 mM SY): − | Diagnosis, Total Spots m = 2 ([1]; 0.63 mM SY): − | Mutation rate, Large Single Spots >2 Cells m = 5 ([1]; 0.63 mM SY): 0.02 (1) spots/wing | Mutation rate, Small Single Spots 1–2 Cells m = 2 ([1]; 0.63 mM SY): 0.19 (9) spots/wing | Mutation rate, Total Spots m = 2 ([1]; 0.63 mM SY): 0.21 (10) spots/wing | Mutation rate, Twin Spots m = 5 ([1]; 0.63 mM SY): 0 spots/wing | Diagnosis, Large Single Spots >2 Cells m = 5 ([1]; 1.26 mM SY): − | Diagnosis, Small Single Spots 1–2 Cells m = 2 ([1]; 1.26 mM SY): − | Diagnosis, Total Spots m = 2 ([1]; 1.26 mM SY): − | Mutation rate, Large Single Spots >2 Cells m = 5 ([1]; 1.26 mM SY): 0.06 (2) spots/wing | Mutation rate, Small Single Spots 1–2 Cells m = 2 ([1]; 1.26 mM SY): 0.22 (7) spots/wing | Mutation rate, Twin Spots m = 5 ([1]; 1.26 mM SY): 0 spots/wing | Survival ([2]; combined with 0.12 M H2O2, 0.16 mM SY): 31.11 *^,‡ % | Survival ([2]; combined with 0.12 M H2O2, 0.32 mM SY): 29.33 *^,‡ % | Survival ([2]; combined with 0.12 M H2O2, 0.63 mM SY): 20.44 *^,‡ % | Survival ([2]; combined with 0.12 M H2O2, 1.26 mM SY): 36.89 *^,‡ % | Survival ([2]; simple treatment, 0.16 mM SY): 39.78 * % | Survival ([2]; simple treatment, 0.32 mM SY): 42.67 * % | Survival ([2]; simple treatment, 0.63 mM SY): 31.11 * % | Survival ([2]; simple treatment, 1.26 mM SY): 58.22 * % | Effect on HL-60 growth [3]: did not affect HL-60 growth
